Here are results for 77 sequences from the OligoGym collection.

The series concerns the target SNHG14. To be noted: ASO.
[1] abbreviates: Mouse Primary Neuronal Cell, 0.005 µM.

After the bases stand the sugars from the 5' end (letter, count) and the backbone: PS all phosphorothioate, else s phosphorothioate and o phosphodiester by linkage. Methylation of C is not given here. l = locked nucleic acid (LNA); d = 2'-deoxy (DNA)

On to “ATTTATTTCCATTTATTTTC (sugars ldddlldddddddldddlll, PS)”, for which the target mRNA inhibition (Human Neuronal Cell, 7.5 µM) was 64%. “ATTGATTCAATTCCCTT (sugars ldddldddddddldlll, PS)”: for the setting “Human Neuronal Cell, 7.5 µM”, the target mRNA inhibition was 62%. As to “GCACATTCTTTCTATACC (sugars l1 d1 l2 d11 l3, PS)”, the target mRNA inhibition (Human Neuronal Cell, 7.5 µM) turned out to be 64%. As for “AAATCTCAACTACCATTTTT (sugars ldldddldddddddllldll, PS)”, the target mRNA inhibition (Human Neuronal Cell, 7.5 µM) came out at 14%. As for “GTTTCCATCTACTATTAAT (sugars llldlddddddddldddll, PS)”, the target mRNA inhibition (Human Neuronal Cell, 7.5 µM) is 50%. In the case of “TTATAGCCATTCTATCT (sugars ldlddddddddlldlll, PS)”, where the note is “Human Neuronal Cell, 7.5 µM”, the target mRNA inhibition came out at 43%. In the case of “TTACTCTTTGATTTCAT (sugars l3 d11 l3, PS)”, the target mRNA inhibition reads like this: (Human Neuronal Cell, 0.2 µM) 34%; (Human Neuronal Cell, 1 µM) 34%. “TTCTGTATACACCATCC (sugars l1 d2 l1 d11 l2, PS)”: under “Human Neuronal Cell, 7.5 µM”, the target mRNA inhibition is 56%. Regarding TAGACTAATCCTCTTA (sugars l4 d10 l2, PS), the target mRNA inhibition was 48% (Human Neuronal Cell, 0.2 µM) and 56% (Human Neuronal Cell, 1 µM). For the sequence “TATCTTTCCATTTATTTCCA (sugars l1 d2 l1 d14 l2, PS)”, the target mRNA inhibition (Human Neuronal Cell, 7.5 µM) was found to be 45%. Take “CAAAGATCATTCTCAACA (sugars l2 d1 l1 d9 l5, PS)”: under “Human Neuronal Cell, 7.5 µM”, the target mRNA inhibition is 69%. Take “AAAATCTCAACTACCATTT (sugars l6 d6 l2 d2 l3, PS)”: the target mRNA inhibition (Human Neuronal Cell, 7.5 µM) turned out to be 23%. The same measure, in the same setting: next, “TGTTTCCATCTACTATTA (sugars ldlldlddddddddddll, PS)”: 60%. Consider “GCACATTCTTTCTATACC (sugars l1 d3 l1 d11 l2, PS)”, for which the target mRNA inhibition (Human Neuronal Cell, 7.5 µM) came to 54%. Take “TTTATACCTTTCTTTAACCC (sugars l1 d14 l1 d2 l2, PS)”: the target mRNA inhibition (Human Neuronal Cell, 7.5 µM) was determined as 53%. On to TATGACTTATTCCATA (sugars l2 d10 l4, PS), for which the target mRNA inhibition (Human Neuronal Cell, 0.2 µM) amounted to 18% and the target mRNA inhibition (Human Neuronal Cell, 1 µM) was 14%. For “CTGTATACACCATCCCA (sugars ldlddddddddldddll, PS)”, the target mRNA inhibition (Human Neuronal Cell, 7.5 µM) was determined as 52%.

As for “AAATTATTTATACACCATCA (sugars lllddllddddddlldddll, PS)”, for the setting “Human Neuronal Cell, 7.5 µM”, the target mRNA inhibition was 64%. Turning to “GTTACATATTCTTTCAC (sugars l3 d11 l3, PS)”, the target mRNA inhibition amounted to 53% (Human Neuronal Cell, 0.2 µM) and 67% (Human Neuronal Cell, 1 µM). As for “TAAAATTATTTATACACCA (sugars ldddllddddddllddlll, PS)”, under “Human Neuronal Cell, 7.5 µM”, the target mRNA inhibition worked out at 55%. Take TACTATCTTTGACATT (sugars l4 d10 l2, PS): the target mRNA inhibition is, setting by setting: (Human Neuronal Cell, 0.2 µM) 49%; (Human Neuronal Cell, 1 µM) 58%. With “CACCTGATAACAGACCCT (sugars l3 d12 l3, PS)”, the target mRNA inhibition is 24% (Human Neuronal Cell, 0.2 µM); 16% (Human Neuronal Cell, 1 µM); -10% (Human Neuronal Cell, 5 µM). In the case of “CTTTGACATTCCATCTC (sugars l2 d11 l4, PS)”, the target mRNA inhibition was 52% (Human Neuronal Cell, 0.2 µM) and 59% (Human Neuronal Cell, 1 µM).

For “TTATAGCCATTCTATCT (sugars l1 d1 l3 d10 l2, PS)”, where the note is “Human Neuronal Cell, 7.5 µM”, the target mRNA inhibition is 67%. As to ACATGTCCCTTTATAT (sugars l2 d12 l2, PS), the target mRNA inhibition (Human Neuronal Cell, 0.2 µM) is -9%; the target mRNA inhibition (Human Neuronal Cell, 1 µM) was -2%; the target mRNA inhibition (Human Neuronal Cell, 5 µM) was 15%. Take “ATCATTCTCAACAATTAAA (sugars llllldddddddlldldll, PS)”: where the note is “Human Neuronal Cell, 7.5 µM”, the target mRNA inhibition was 41%.

Regarding TTTACTCTGCAATACA (sugars l2 d10 l4, PS), the target mRNA inhibition (Human Neuronal Cell, 0.2 µM) was determined as 45% and the target mRNA inhibition (Human Neuronal Cell, 1 µM) stood at 60%. As for “AAAGATCATTCTCAACAA (sugars l1 d1 l1 d9 l6, PS)”, for the setting “Human Neuronal Cell, 7.5 µM”, the target mRNA inhibition is 61%. On the same count and under the same terms, the result for “AAATTATTTATACACCATCA (sugars lldlldldddddddldddll, PS)” reads 71%; that for GCTTTTAACCAGAGT (sugars l3 d9 l3, PS), 73%. For the sequence “CTTGTCAAATCATTTCT (sugars l4 d11 l2, PS)”, the target mRNA inhibition was determined as 47% (Human Neuronal Cell, 0.2 µM) and 41% (Human Neuronal Cell, 1 µM). Regarding “TATTGATTCAATTCCCT (sugars l1 d1 l3 d10 l2, PS)”, the target mRNA inhibition (Human Neuronal Cell, 7.5 µM) stood at 71%.

For the sequence “TTGATTCAATTCCCTTA (sugars lldddddddddldldll, PS)”, the target mRNA inhibition (Human Neuronal Cell, 7.5 µM) was 61%. For ATCTTCAAGAATTCTC (sugars l3 d10 l3, PS), the target mRNA inhibition (Human Neuronal Cell, 0.2 µM) worked out at 44% and the target mRNA inhibition (Human Neuronal Cell, 1 µM) is 48%. Consider “GTTACCTACATCTCATA (sugars l2 d13 l2, PS)”, for which the target mRNA inhibition is, setting by setting: (Human Neuronal Cell, 0.2 µM) -14%; (Human Neuronal Cell, 1 µM) 11%; (Human Neuronal Cell, 5 µM) 13%; under setting [1], 81%. Consider “TTTATACCTTTCTTTAACCC (sugars l1 d13 l1 d3 l2, PS)”, for which the target mRNA inhibition (Human Neuronal Cell, 7.5 µM) stood at 57%.

For “TATCTTTCCATTTATTTCCA (sugars l2 d16 l2, PS)”, where the note is “Human Neuronal Cell, 7.5 µM”, the target mRNA inhibition was -12%.

Turning to “ATCTCATGACCACCTAA (sugars l3 d11 l3, PS)”, the target mRNA inhibition (Human Neuronal Cell, 0.2 µM) amounted to 54% and the target mRNA inhibition (Human Neuronal Cell, 1 µM) worked out at 56%. As for “CCCACCAAAGGATATATT (sugars l3 d12 l3, PS)”, the target mRNA inhibition (Human Neuronal Cell, 0.2 µM) is -28%; the target mRNA inhibition (Human Neuronal Cell, 1 µM) worked out at 33%; the target mRNA inhibition (Human Neuronal Cell, 5 µM) turned out to be 16%. As for “CTGTTTATACCCTTTCCA (sugars l1 d15 l2, PS)”, the target mRNA inhibition (Human Neuronal Cell, 7.5 µM) turned out to be 47%.

On to “TCAAAGCACACCACCAC (sugars l2 d12 l3, PS)”, for which the target mRNA inhibition (Human Neuronal Cell, 0.2 µM) stood at 34% and the target mRNA inhibition (Human Neuronal Cell, 1 µM) was 47%.

For the sequence “TTTCCATTTATTTCCATTT (sugars lddldldddddddldddll, PS)”, the target mRNA inhibition (Human Neuronal Cell, 7.5 µM) was found to be 53%. “TGTTTATACCCTTTCCAA (sugars l1 d4 l1 d9 l3, PS)”: the target mRNA inhibition (Human Neuronal Cell, 7.5 µM) worked out at 56%. Turning to “TATCTTTCCATTTATTTCCA (sugars lddddlddddddddllddll, PS)”, the target mRNA inhibition (Human Neuronal Cell, 7.5 µM) was 50%. “TCATTGAACAACTCTTC (sugars l4 d11 l2, PS)”: the target mRNA inhibition (Human Neuronal Cell, 0.2 µM) came out at 31% and the target mRNA inhibition (Human Neuronal Cell, 1 µM) turned out to be 17%. “ATCATTCTCAACAATTAAA (sugars l1 d1 l4 d6 l7, PS)”: the target mRNA inhibition (Human Neuronal Cell, 7.5 µM) was 13%. For “GCACATTCTTTCTATAC (sugars l1 d1 l3 d8 l4, PS)”, the target mRNA inhibition (Human Neuronal Cell, 7.5 µM) was found to be 59%. Turning to GCTCCATATTTAAATC (sugars l4 d10 l2, PS), the target mRNA inhibition (Human Neuronal Cell, 0.2 µM) was determined as 7% and the target mRNA inhibition (Human Neuronal Cell, 1 µM) stood at 20%. Regarding “TATTGATTCAATTCCCT (sugars ldlldddddddllldll, PS)”, where the note is “Human Neuronal Cell, 7.5 µM”, the target mRNA inhibition amounted to 19%. Regarding “ACTTCCAGATTTCTACA (sugars l2 d11 l4, PS)”, the target mRNA inhibition (Human Neuronal Cell, 0.2 µM) was 54% and the target mRNA inhibition (Human Neuronal Cell, 1 µM) stood at 63%.

Take CAAAGATCATTCTCAAC (sugars l3 d8 l6, PS): the target mRNA inhibition (Human Neuronal Cell, 7.5 µM) was 53%. With “TAAAATTATTTATACACCAT (sugars l7 d6 l1 d3 l3, PS)”, the target mRNA inhibition (Human Neuronal Cell, 7.5 µM) amounted to 51%. Same read-out and setting: the result for “TTTACACTTAATTATACTTC (sugars lddldldddddddlldllll, PS)” reads 36%; that for “CTGTATACACCATCCCA (sugars l1 d14 l2, PS)”, 49%. In the case of “ATCTCATGACCACCTAA (sugars l1 d3 l1 d8 l4, PS)”, the target mRNA inhibition (Human Neuronal Cell, 7.5 µM) worked out at 58%. Consider “TTGATTCAATTCCCTTA (sugars lddllddddddllddll, PS)”, for which the target mRNA inhibition (Human Neuronal Cell, 7.5 µM) came to 55%. Take “GCACATTCTTTCTATAC (sugars l3 d12 l2, PS)”: the target mRNA inhibition (Human Neuronal Cell, 7.5 µM) was 52%. CACTTAGAATATCCCT (sugars l2 d10 l4, PS): the target mRNA inhibition (Human Neuronal Cell, 0.2 µM) was found to be 43% and the target mRNA inhibition (Human Neuronal Cell, 1 µM) was determined as 35%. For “GTTTCCATCTACTATTAA (sugars ldldllddddddddddll, PS)”, where the note is “Human Neuronal Cell, 7.5 µM”, the target mRNA inhibition came to 58%. As to “TATTGATTCAATTCCCT (sugars l2 d12 l3, PS)”, for the setting “Human Neuronal Cell, 7.5 µM”, the target mRNA inhibition worked out at 59%. For “ATATTGATTCAATTCCC (sugars lddlldddddddlldll, PS)”, the target mRNA inhibition (Human Neuronal Cell, 7.5 µM) came out at 63%. Turning to “TCCTCTGCTTATAACTT (sugars l3 d12 l2, PS)”, the target mRNA inhibition (Human Neuronal Cell, 0.2 µM) was determined as 53% and the target mRNA inhibition (Human Neuronal Cell, 1 µM) was 62%.

As to “TTGTCAATCTTTATTCT (sugars l4 d11 l2, PS)”, the target mRNA inhibition worked out at 33% (Human Neuronal Cell, 0.2 µM) and 45% (Human Neuronal Cell, 1 µM). In the case of “ATCATTCTCAACAATTA (sugars l4 d11 l2, PS)”, the target mRNA inhibition runs as follows: (Human Neuronal Cell, 0.2 µM) 59%; (Human Neuronal Cell, 1 µM) 70%. For “TACATCTCATACTTGCT (sugars l4 d11 l2, PS)”, the target mRNA inhibition under setting [1] is 95.3%. As to “GTTTATACCCTTTCCAAT (sugars l1 d1 l1 d13 l2, PS)”, the target mRNA inhibition (Human Neuronal Cell, 7.5 µM) was 56%. On the same count and under the same terms, next, “ACTGTTTATACCCTTTC (sugars ldlddddddddldldll, PS)”: 63%. As to “TTATAGCCATTCTATCT (sugars l4 d11 l2, PS)”, the target mRNA inhibition was found to be 63% (Human Neuronal Cell, 0.2 µM) and 69% (Human Neuronal Cell, 1 µM). With CAAGTTTCCTATATTC (sugars l4 d10 l2, PS), the target mRNA inhibition (Human Neuronal Cell, 0.2 µM) stood at 62% and the target mRNA inhibition (Human Neuronal Cell, 1 µM) was determined as 64%. Take “CTGTATACACCATCCCA (sugars ldddlddddddldddll, PS)”: for the setting “Human Neuronal Cell, 7.5 µM”, the target mRNA inhibition worked out at 29%.

As to “AGCAACATTATTAACCACC (sugars lddlldddddddlddldll, PS)”, the target mRNA inhibition (Human Neuronal Cell, 7.5 µM) was 46%.

“ACCTACATCTCATACTT (sugars l2 d13 l2, PS)”: the target mRNA inhibition runs as follows: (Human Neuronal Cell, 0.2 µM) 3%; (Human Neuronal Cell, 1 µM) -18%; (Human Neuronal Cell, 5 µM) 7%; under setting [1], 88.6%. Consider “TTATAGCCATTCTATCT (sugars ldlllddddddldddll, PS)”, for which, under “Human Neuronal Cell, 7.5 µM”, the target mRNA inhibition worked out at 44%. With “TTTTATACCTTTCTTTAACC (sugars ldlddddddddddlddllll, PS)”, the target mRNA inhibition (Human Neuronal Cell, 7.5 µM) amounted to 64%. For the sequence “CTGTATACACCATCCCA (sugars l1 d2 l2 d10 l2, PS)”, the target mRNA inhibition (Human Neuronal Cell, 7.5 µM) was 61%.

“TTACACTTAATTATACTTCC (sugars ldddddldddddddldldll, PS)”: the target mRNA inhibition (Human Neuronal Cell, 7.5 µM) came to 61%. “TAAAATTATTTATACACCAT (sugars lldlllldddddddllldll, PS)”: the target mRNA inhibition (Human Neuronal Cell, 7.5 µM) is 26%.
